Data set [1] can be described thus: Phase 2A study (Magnolia) in women with postpartum depression: ganaxolone plasma concentrations / pharmacokinetics. To be noted: for Ratio GNX Concentration (ng/mL)/(μg/hr/kg): individual subjects of Cohorts 1-3 (order of Table 1A), listed as GNX. How it is done:
Approximately 200 women with PPD 18 to 45 years of age are screened to randomize up to 100 subjects across up to 6 cohorts. Approximately 10-30 subjects are randomized into each cohort. Randomized subjects receive the investigational product (IP), ganaxolone or matching placebo in a 1:1 ratio. In Cohorts 1-5 the IP is administered intravenously over 60 hours. In Cohort 6 the dosing is initiated with a 6-hour intravenous (IV) infusion followed by oral dosing for 28 days plus 3-day taper.
Ganaxolone is infused at a rate of 4 mg/hr (16 ml/h of ganaxolone 0.25 mg/ml solution) for 48 hours and then, to minimize any risks for withdrawal or rebound of anxiety and depression symptoms, at a rate of 2 mg/hr for the next 12 hours. The infusion is stopped at 60 hours. Total of 9 subjects are dosed for this cohort.
Ganaxolone is infused at a rate of 8 mg/hr (16 ml/h of ganaxolone 0.5 mg/ml solution) for 48 hours and then at a rate of 4 mg/hr for the next 12 hours. This dose is approximately double the expected plasma exposure as compared to Cohort 1 at steady state (Cohort 2 expected plasma concentration ˜100-120 ng/mL). The infusion is stopped at 60 hours.
Twelve mg bolus of ganaxolone is initially given over 2 minutes followed by ganaxolone infusion at a rate of 12 mg/hr (24 ml/h of ganaxolone 0.5 mg/ml solution) for 48 hours. The rate is then reduced to 6 mg/hr for the next 12 hours, which is done to minimize any risks for withdrawal or rebound of anxiety and depression symptoms. The infusion is stopped at 60 hours.
In this cohort dosing is initiated with ganaxolone infusion at a rate of 20 mg/hr (40 ml/h of ganaxolone 0.5 mg/ml solution or matching placebo) for 6 hours followed by ganaxolone 900 mg (four 225 mg capsules per dose) or matching placebo capsules given orally at dinner time for 28 days followed by a 3-day taper (three, two, and one 225 mg capsule(s) per day, respectively).
This initial infusion is targeted to provide a fast onset of antidepressant activity by delivery of rapid plasma exposures to ganaxolone. Then, at dinner time of Day 1 the subjects take their first oral dose of ganaxolone 900 mg (four 225 mg capsules) or matching placebo (4 capsules). […] In previous studies, ganaxolone has been given up to a daily dose of 2000 mg, and at single doses of 1000 mg.
Six samples are collected for pharmacokinetic analysis in Cohorts 1-5 and 12 samples in Cohort 6. […] Seven samples are collected during the inpatient phase of Cohort 6 (including 6 samples on Day 1) followed by collection of 5 samples during the outpatient phase during the study visits for a total of 12 samples in Cohort 6.

Data set [2] can be described thus: Cardiovascular safety pharmacology in dogs, single dose. The settings on record: dog, in vivo, single dose of up to 15 mg/kg. It is filed as in vivo, dog. The protocol: (§1) Safety pharmacology studies were conducted with ganaxolone.
Another data set has as its system dogs. Described as above. It is filed as in vivo, dog. The settings on record: single dose of up to 15 mg/kg. How it is done:
as §1

The test system of data set [3] is synaptic and extrasynaptic GABAA receptors. Briefly: Activation of synaptic and extrasynaptic GABAA receptors. To be noted: site distinct from the benzodiazepine site.
Data set [4] has as its system BTBR mouse model of autism. The settings on record: Kazdoba et al, 2016; cited from earlier work.

SMILES strings stand for the structures. Values joined by “and” are separate entries in the source; they are usually repeats but may differ in a detail not shown here. Identical values can stand only once.

We go through one molecule from patent US11266662B2, “Ganaxolone for use in prophylaxis and treatment of postpartum depression” (Marinus Pharmaceuticals, Inc., priority 2018, dated 2022).

The term AUC denotes the area under the concentration-time curve, a measure of exposure. Turning to `CC(=O)[C@H]1CC[C@H]2[C@@H]3CC[C@H]4C[C@](C)(O)CC[C@]4(C)[C@H]3CC[C@]12C` [ganaxolone, 3α-hydroxy-3β-methyl-5α-pregnan-20-one], the AUC was 2530 ng·h/mL in data set [1] (female, human, plasma, iv, 210 ug/kg, AUC12-24, calculated from Table 1C, dose 210 μg/kg/hr (row order of Table 1C)); 8150 ng·h/mL in data set [1] (female, human, plasma, iv, 210 ug/kg, AUC12-48, calculated from Table 1C, dose 210 μg/kg/hr (row order of Table 1C)); 5620 ng·h/mL in data set [1] (female, human, plasma, iv, 210 ug/kg, AUC24-48, calculated from Table 1C, dose 210 μg/kg/hr (row order of Table 1C)); 2650 ng·h/mL in data set [1] (female, human, plasma, iv, 220 ug/kg, AUC12-24, calculated from Table 1C, dose 220 μg/kg/hr (row order of Table 1C)); 8540 ng·h/mL in data set [1] (female, human, plasma, iv, 220 ug/kg, AUC12-48, calculated from Table 1C, dose 220 μg/kg/hr (row order of Table 1C)); 5890 ng·h/mL in data set [1] (female, human, plasma, iv, 220 ug/kg, AUC24-48, calculated from Table 1C, dose 220 μg/kg/hr (row order of Table 1C)). In addition, the AUC in data set [1] (female, human, plasma, iv, 260 ug/kg, AUC12-24, calculated from Table 1C, dose 260 μg/kg/hr (row order of Table 1C)) is 3130 ng·h/mL; in data set [1] (female, human, plasma, iv, 260 ug/kg, AUC12-48, calculated from Table 1C, dose 260 μg/kg/hr (row order of Table 1C)), 10100 ng·h/mL; in data set [1] (female, human, plasma, iv, 260 ug/kg, AUC24-48, calculated from Table 1C, dose 260 μg/kg/hr (row order of Table 1C)) it was 6960 ng·h/mL. Moreover, the concentration at 12 h in data set [1] (female, human, plasma, iv, GNX Concentration, Cohort 1: IV 4 mg/hr for 48 h then 2 mg/hr for 12 h, individual subjects, time 12 hr) is 58.8 ng/mL. In data set [1] (female, human, plasma, iv, GNX Concentration, Cohort 1: IV 4 mg/hr for 48 h then 2 mg/hr for 12 h, individual subjects, time 24 hr), this molecule showed a concentration at 24 h of 72.6 ng/mL. Further, the concentration at 48 h in data set [1] (female, human, plasma, iv, GNX Concentration, Cohort 1: IV 4 mg/hr for 48 h then 2 mg/hr for 12 h, individual subjects, time 48 hr) is 78.1 ng/mL. In data set [1] (female, human, plasma, iv, GNX Concentration, Cohort 1: IV 4 mg/hr for 48 h then 2 mg/hr for 12 h, individual subjects, time 72 hr), the concentration at 72 h stood at 10.1 ng/mL. Moreover, the “Ratio GNX Concentration (ng/mL)/(μg/hr/kg)” value in data set [1] (time 12 hrs) is 0.99 (ng/mL)/(μg/hr/kg) and 1.24 (ng/mL)/(μg/hr/kg) and 0.74 (ng/mL)/(μg/hr/kg) and 1.21 (ng/mL)/(μg/hr/kg) (3×) and 0.94 (ng/mL)/(μg/hr/kg) and 0.90 (ng/mL)/(μg/hr/kg) and 0.87 (ng/mL)/(μg/hr/kg) and 0.76 (ng/mL)/(μg/hr/kg) and 1.08 (ng/mL)/(μg/hr/kg) (2×) and 0.53 (ng/mL)/(μg/hr/kg) and 1.14 (ng/mL)/(μg/hr/kg) and 0.83 (ng/mL)/(μg/hr/kg) and 0.89 (ng/mL)/(μg/hr/kg) and 0.97 (ng/mL)/(μg/hr/kg) (3×) and 0.82 (ng/mL)/(μg/hr/kg) and 0.80 (ng/mL)/(μg/hr/kg) (2×) and 1.02 (ng/mL)/(μg/hr/kg) and 0.86 (ng/mL)/(μg/hr/kg) and 0.60 (ng/mL)/(μg/hr/kg) and 1.28 (ng/mL)/(μg/hr/kg); in data set [1] (time 24 hrs) it was 1.22 (ng/mL)/(μg/hr/kg) (3×) and 1.45 (ng/mL)/(μg/hr/kg) and 0.96 (ng/mL)/(μg/hr/kg) (2×) and 1.53 (ng/mL)/(μg/hr/kg) and 0.28 (ng/mL)/(μg/hr/kg) and 0.63 (ng/mL)/(μg/hr/kg) and 1.12 (ng/mL)/(μg/hr/kg) (3×) and 1.32 (ng/mL)/(μg/hr/kg) (2×) and 0.86 (ng/mL)/(μg/hr/kg) and 1.36 (ng/mL)/(μg/hr/kg) and 1.03 (ng/mL)/(μg/hr/kg) (2×) and 1.16 (ng/mL)/(μg/hr/kg) and 1.34 (ng/mL)/(μg/hr/kg) and 0.95 (ng/mL)/(μg/hr/kg) and 0.92 (ng/mL)/(μg/hr/kg) and 1.48 (ng/mL)/(μg/hr/kg) and 0.55 (ng/mL)/(μg/hr/kg) and 0.13 (ng/mL)/(μg/hr/kg); in data set [1] (time 48 hrs), 1.31 (ng/mL)/(μg/hr/kg) and 1.39 (ng/mL)/(μg/hr/kg) and 1.42 (ng/mL)/(μg/hr/kg) and 1.12 (ng/mL)/(μg/hr/kg) and 1.23 (ng/mL)/(μg/hr/kg) (2×) and 1.01 (ng/mL)/(μg/hr/kg) and 0.97 (ng/mL)/(μg/hr/kg) and 1.06 (ng/mL)/(μg/hr/kg) and 0.81 (ng/mL)/(μg/hr/kg) and 1.09 (ng/mL)/(μg/hr/kg) and 0.78 (ng/mL)/(μg/hr/kg) (2×) and 1.02 (ng/mL)/(μg/hr/kg) and 1.76 (ng/mL)/(μg/hr/kg) and 1.17 (ng/mL)/(μg/hr/kg) and 1.47 (ng/mL)/(μg/hr/kg) and 1.20 (ng/mL)/(μg/hr/kg) and 1.60 (ng/mL)/(μg/hr/kg) and 0.55 (ng/mL)/(μg/hr/kg) and 1.56 (ng/mL)/(μg/hr/kg) and 0.80 (ng/mL)/(μg/hr/kg) and 0.84 (ng/mL)/(μg/hr/kg); in data set [1] (time 72 hrs), 0.17 (ng/mL)/(μg/hr/kg) (2×) and 0.31 (ng/mL)/(μg/hr/kg) and 0.28 (ng/mL)/(μg/hr/kg) and 0.33 (ng/mL)/(μg/hr/kg) (2×) and 0.18 (ng/mL)/(μg/hr/kg) and 0.10 (ng/mL)/(μg/hr/kg) and 0.25 (ng/mL)/(μg/hr/kg) and 0.32 (ng/mL)/(μg/hr/kg) and 0.29 (ng/mL)/(μg/hr/kg) and 0.24 (ng/mL)/(μg/hr/kg) and 0.21 (ng/mL)/(μg/hr/kg) (2×) and 0.36 (ng/mL)/(μg/hr/kg) and 0.16 (ng/mL)/(μg/hr/kg) (2×) and 0.13 (ng/mL)/(μg/hr/kg) (2×) and 0.23 (ng/mL)/(μg/hr/kg) (2×) and 0.34 (ng/mL)/(μg/hr/kg) and 0.35 (ng/mL)/(μg/hr/kg) and 0.38 (ng/mL)/(μg/hr/kg) and 0.19 (ng/mL)/(μg/hr/kg) (2×). In addition, in data set [2] (read-out: AUC(0-24)), the AUC(0-t) was 10000 ng·h/mL. Besides, the Cmax in data set [2] (read-out: Maximum concentration [Cmax]) was 1000 ng/mL. Besides, the “Effect on cardiovascular parameters” value with dogs is reported as “no effect on cardiovascular parameters”. Moreover, in data set [3], the “Potency and efficacy in activating GABAA receptors” value is on record as “comparable to allopregnanolone”. In addition, the Sociability result in data set [4] is “improved sociability”.
